Columns and labels:
MM.1S cells = assay: CCK-8 cell viability, MM.1S; type: cell-based; conditions: Homo sapiens, MM1.S, 72h
Description: (§1) Cell viability was detected by Cell Counting Kit-8 (CCK-8) (Dojindo Laboratories, Japan). MM cells were seeded on 96-well plates and placed in an incubator for 24 h. After being treated with drugs for another 72 h, cell viability was examined using the CCK-8 reagent. The CellTiter-Glo Luminescent Cell Viability Assay Kit (Promega, USA) was used to determine the viability of CD138^+ cells and PBMCs. For flow cytometry, MM cells were seeded in 6-well plates and placed in an incubator for 24 h. Then, the MM cells were incubated with drugs for another 24 h and collected for flow cytometry analysis. The cell cycle was examined by flow cytometry using a propidium iodide (PI) staining assay kit (BD Biosciences, USA). Cell apoptosis was detected by flow cytometry using the Annexin V/PI Kit (BD Biosciences, USA).
(§2) The Cell Counting Kit-8 (CCK-8) assay was used for cell viability assessment. CCK-8 provided a highly water-soluble tetrazole salt, WST-8, which would produce a water-soluble orange formazan in the presence of dehydrogenase derived from living cells. The OD value was detected at 450 nm with a microplate analyzer to indirectly reflect the number of living cells. […] Among the four patients, patients 1 (Fig. 2E), 2 (Fig. 2F), and 3 (Fig. 2G) were newly diagnosed, and patient 4 (Fig. 2H) had experienced relapse after prior therapies.

MM.1R cells = assay: CCK-8 cell viability, MM.1R; type: cell-based; conditions: Homo sapiens, 72h
Description: as §1, §2

RPMI-8226 cells = assay: CCK-8 cell viability, RPMI-8226; type: cell-based; conditions: Homo sapiens; RPMI-8226, 72h
Description: as §1, §2

ARP1 cells = assay: CCK-8 cell viability, ARP1; type: cell-based; conditions: Homo sapiens, ARP-1; ARP1, 72h
Description: as §1, §2

[1] = system: MM patient-derived CD138+ cells; assay: Viability of MM patient-derived BM CD138+ cells; type: cell-based; conditions: Homo sapiens, primary MM cell
Description: Human MM.1S (dexamethasone-sensitive), MM.1R (dexamethasone-resistant), ARP1, and RPMI-8226 MM cell lines were obtained from American Type Culture Collection (ATCC, Rockville, USA) and cultured in RPMI-1640 medium (Gibco-BRL, USA) supplemented with 10% fetal bovine serum (Gibco, USA) and 1% penicillin/streptomycin (Gibco, USA). All the cells are maintained in 5% CO2 at 37 °C and have been tested for mycoplasma contamination. Peripheral blood mononuclear cells (PBMCs) were collected from healthy volunteers. BM mononuclear cells and PBMCs from MM patients were isolated by Ficoll-Hypaque density-gradient separation. CD138^+ cells were isolated from BM mononuclear cells of MM patients using CD138^+ Micro Beads and the Auto MACS magnetic cell sorter (Miltenyi Biotech, Germany). All primary samples were obtained with informed consent from patients with MM or healthy donors according to the Declaration of Helsinki. This study was approved by the Review Committee of the First Affiliated Hospital of Nanjing Medical University.
as §1, §2

hERG channels = molecular target: T1, hERG channels (Homo sapiens, UniProt Q12809); assay: hERG whole-cell patch-clamp, tail current; type: cell-based
T1 construct: expressed in transfected cells; host or cells: HEK293T
Description: The activation of the hERG pathway was detected by the whole-cell patch-clamp technique at room temperature (22 ± 1 °C) using an AXON 200B amplifier through a digitizer (DigiData 1440A, Molecular Devices, USA) controlled by pClamp software (v10.0) as previously described.
Human ether-à-go-go-related gene (hERG) K^+ channels are vital in cardiac repolarization[28],[29]. Drug cardiotoxicity can be partially attributed to hERG channel dysfunction that leads to long QT syndrome and ventricular action potential delay. […] The real-time current was measured during drug treatment. Figure 8A presents the command waveform of the tail-current protocol under voltage-clamp mode.

ARP1 xenografts = assay: ARP1 xenograft in BALB/c nude mice; type: in vivo, mouse; conditions: i.v. 4 mg/kg twice a week
Description: BALB/c nude mice (male, 4–6 weeks old) were purchased from Ziyuan Co., Ltd. (Hangzhou, China). ARP1 cells (1 × 10^6 cells in 100 μl PBS) were injected subcutaneously into the hindquarters of each mouse. […] All mice were observed every 2 days for at least 7 weeks. Tumor growth was assessed by calculating volume according to the following equation: volume = a × b^2/2, where a is the widest length and b is the perpendicular diameter. On the appointed day, fifteen tumor tissue samples were removed from the mice for hematoxylin and eosin (H&E) staining and stained with Ki67 and CD138 antibodies. Investigators were blinded to the group allocation during measuring tumor size, weight, and performing staining. All animal procedures were approved by the Institutional Review Board of the College of Life Science, Nanjing Normal University (Approval No. IACUC-20200506).
We next validated the anti-tumor role of D395 in vivo. Human MM cell line ARP1 (1 × 10^6 cells per mouse) were injected subcutaneously into BALB/c nude mice. […] The medication was given twice a week. Tumor size was measured every 3 days (Fig. 5A). […] On the endpoint day, all the mice were sacrificed, and tumors were collected (Fig. 5B, C). […] Tumor tissues were sampled for immunohistochemistry. The tissues were stained for Ki67, a cell proliferation marker, to show tumor growth (Fig. 5E).

C57BL/6 mice = assay: Cardiotoxicity in C57BL/6 mice (echocardiography, serum enzymes, histopathology); type: in vivo, mouse; conditions: 8 mg/kg i.p. every 2 days for 1 week
Description: On day 7, the mice were sacrificed after an echocardiography test to harvest the serum for biochemical estimations. Biochemical estimations, including alanine aminotransferase (ALT), aspartate transaminase (AST), lactic dehydrogenase (LDH), creatine kinase-MB (CK-MB), and creatine kinase (CK), were tested using an autoanalyzer (Siemens, USA). Freshly harvested cardiac tissue was fixed in 4% buffered formalin solution for 24 h and embedded in paraffin wax. Sections ([…] thick) were obtained from each sample and stained with H&E. Histologic observation was performed with a Nikon i55 optical microscope (Nikon Corporation, Japan).
In addition, CT-L activity recovered in a time-dependent manner, as previously discovered in vitro (Fig. 7B). […] The echocardiographic analysis was performed at baseline (day 0) and endpoint (day 7) (Fig. 7D). […] We also examined the levels of CK, CK-MB, LDH, ALT, and AST in the blood serum from the treated mice.

MM patients = conditions: carfilzomib-treated MM patients ref 13, 14; cited from earlier work
[2] = system: NF-κB activity in NF-κB-luc HEK293T cells; assay: NF-κB luciferase reporter assay, TNF-α stimulated; conditions: Homo sapiens, HEK-293T, read-out: IC50 of NF-κB luciferase activity
Description: The plasmids pcDNA3.1-(+)-NF-κB and pcDNA3.1-(+)-Renilla were mixed with Lipofectamine 2000 (Invitrogen, USA) and then transfected into HEK293T cells (Institute of Biochemistry and Cell Biology, China). […] The activity of NF-κB was examined by the Dual-Luciferase® Reporter Assay System (Promega, USA) as previously described[22].
Activation of NF-κB was determined by luciferase reporter gene assay using stably transfected NF-κB-luc HEK293T cells. The NF-κB signaling pathway was activated by TNF-α stimulation.

six non-proteasomes = assay: Non-proteasome substrate-based assay (six non-proteasomes)
Description: A standard substrate-based assay of non-proteasome was performed as described (GenScript, China)[19].

[3] = system: proteasome CT-L activity in MM.1S cells; assay: Proteasome-Glo cell-based assay, CT-L activity in MM.1S cells; conditions: read-out: IC50 of cellular proteasome CT-L activity, treated 1 h
Description: (§3) In vitro, the 20S proteasome activity of cells was detected by using the Proteasome-Glo Assay (Promega, USA) either after drug treatment for 4, 24, or 48 h in fresh medium.
(§4) Proteasome activity was measured by the Proteasome-Glo cell-based assay.

[4] = system: proteasome CT-L activity in MM.1R cells; assay: Proteasome-Glo cell-based assay, CT-L activity in MM.1R cells; conditions: read-out: IC50 of cellular proteasome CT-L activity, treated 1 h
Description: as §3, §4

[5] = system: proteasome CT-L activity in RPMI-8226 cells; assay: Proteasome-Glo cell-based assay, CT-L activity in RPMI-8226 cells; conditions: read-out: IC50 of cellular proteasome CT-L activity, treated 1 h
Description: as §3, §4

RPMI-8226 BTZ-DR cells = assay: Annexin V flow cytometry in bortezomib-resistant cells; type: cell-based, human
Description: as §1
It is known that drug resistance limits the application of proteasome inhibitors in clinical treatment.

T1 sequence (Q12809 whole entry): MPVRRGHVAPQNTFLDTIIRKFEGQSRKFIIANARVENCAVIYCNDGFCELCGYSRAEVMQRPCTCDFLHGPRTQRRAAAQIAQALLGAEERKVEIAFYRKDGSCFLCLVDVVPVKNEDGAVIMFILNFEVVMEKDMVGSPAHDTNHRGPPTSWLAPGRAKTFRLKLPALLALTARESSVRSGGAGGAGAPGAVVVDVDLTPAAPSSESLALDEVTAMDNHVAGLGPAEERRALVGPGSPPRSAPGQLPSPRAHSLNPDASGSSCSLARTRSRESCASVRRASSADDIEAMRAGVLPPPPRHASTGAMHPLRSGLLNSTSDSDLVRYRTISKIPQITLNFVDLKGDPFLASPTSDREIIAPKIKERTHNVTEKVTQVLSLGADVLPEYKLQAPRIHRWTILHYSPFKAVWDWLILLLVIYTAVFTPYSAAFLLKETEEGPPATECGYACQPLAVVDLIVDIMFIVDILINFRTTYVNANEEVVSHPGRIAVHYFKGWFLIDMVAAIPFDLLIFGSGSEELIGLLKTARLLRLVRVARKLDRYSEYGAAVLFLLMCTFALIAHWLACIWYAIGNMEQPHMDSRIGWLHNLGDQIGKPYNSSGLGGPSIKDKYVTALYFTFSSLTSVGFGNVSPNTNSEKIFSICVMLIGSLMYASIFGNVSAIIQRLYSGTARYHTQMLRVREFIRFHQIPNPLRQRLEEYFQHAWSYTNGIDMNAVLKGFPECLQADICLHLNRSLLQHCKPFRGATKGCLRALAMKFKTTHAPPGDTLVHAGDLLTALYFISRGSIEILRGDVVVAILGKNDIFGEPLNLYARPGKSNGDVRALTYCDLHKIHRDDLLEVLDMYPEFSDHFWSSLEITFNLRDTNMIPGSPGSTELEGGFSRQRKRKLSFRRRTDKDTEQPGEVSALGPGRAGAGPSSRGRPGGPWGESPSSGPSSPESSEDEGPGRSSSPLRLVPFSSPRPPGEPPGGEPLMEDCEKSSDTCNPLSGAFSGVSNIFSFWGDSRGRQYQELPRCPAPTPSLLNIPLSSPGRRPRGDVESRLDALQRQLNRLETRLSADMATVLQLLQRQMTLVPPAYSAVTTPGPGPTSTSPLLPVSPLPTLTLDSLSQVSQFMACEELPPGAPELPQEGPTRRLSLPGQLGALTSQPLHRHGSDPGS

Structure (SMILES): CC(C)C[C@H](NC(=O)[C@H](CCc1ccccc1)NC(=O)CN1CCOCC1)C(=O)N[C@@H](Cc1ccccc1)C(=O)N[C@@H](CC(C)C)C(=O)[C@@]1(C)CO1 [Carfilzomib]
- IC50 (MM.1S cells): 7 ± 0.9 nM
- IC50 (MM.1R cells): 11 ± 0.9 nM
- IC50 (RPMI-8226 cells): 13.5 ± 1.9 nM
- IC50 (ARP1 cells): 35.6 ± 5.1 nM
- IC50 ([1]; 24 h, patient 1 (newly diagnosed)): 56.5 ± 2.5 nM
- IC50 ([1]; 24 h, patient 2 (newly diagnosed)): 354 ± 19.4 nM
- IC50 ([1]; 24 h, patient 3 (newly diagnosed)): 444 ± 48 nM
- IC50 ([1]; 24 h, patient 4 (relapsed)): 38 ± 5.8 nM
- IC50 ([1]; 36 h, patient 2 (newly diagnosed)): 339 ± 22.8 nM
- IC50 ([1]; 36 h, patient 3 (newly diagnosed)): 288 ± 19.5 nM
- IC50 (hERG channels): 25.7 µM
- Tumor growth (ARP1 xenografts; ARP1 xenograft): grew slower than those in the control group
- Weight of the mice (ARP1 xenografts; treatment period): the weight of the mice did not change
- CT-L, C-L, and T-L activities in tumor samples (ARP1 xenografts; tumors at endpoint): lower in the carfilzomib and D395 groups than in the control group
- Heart histological analysis (H&E) (C57BL/6 mice): myocardial degeneration and myocardial fiber damage with cytoplasmic vacuoles
- FS% and EF% (echocardiography) (C57BL/6 mice; day 7): the FS% and EF% decreased in both the carfilzomib and D395 groups
- Serum CK-MB and LDH levels (C57BL/6 mice; day 7): increased in the carfilzomib group
- LVEDD, LVESD, LVEDV, LVESV (C57BL/6 mice; versus control group): No significant differences in LVEDD, LVESD, LVEDV, or LVESV
- Incidence of cardiotoxicity (MM patients): 5–10%
- IC50 [2]: 35.7 nM
- Inhibitory effect on six non-proteasomes (six non-proteasomes): neither carfilzomib nor D395 exerted an inhibitory effect
- IC50 [3]: 13.8 nM
- IC50 [4]: 18.1 nM
- IC50 [5]: 25.8 nM

Structure (SMILES): CC(C)C[C@H](NC(=O)[C@H](Cc1ccccc1)NC(=O)c1cnccn1)B(O)O [bortezomib, Bortezomib]
- Apoptotic population / cell death (RPMI-8226 BTZ-DR cells): lower than that of the RPMI-8226 WT group
